Patent publication US20040242489A1, “Method for improving stability of a bone-connecting implant” (priority 2001, published 2004)

Columns and labels:
[1] = system: knee prosthesis in patients; settings: administered orally to patients undergoing total knee replacement; cited from earlier work
[2] = system: rats, titanium bone chamber; settings: 15-240 μg/kg/day for six weeks; cited from earlier work
[3] = system: humans suffering from osteoporosis; settings: cited from earlier work
[4] = system: rats, stainless steel screw; settings: 60 μg/kg/day for four weeks; cited from earlier work
[5] = system: bone-connecting implant in a human; experiment: Displacement or migration of implant by radiosterometric analysis (RSA) in patients treated with PTH; format: in vivo
Source text: For example, in Hilding, M. et al., Acta Orthopaedica Scandinavica 71:553-557 (2000), several 0.8 mm tantalum markers were positioned in both the proximal tibia and the plastic insert during total knee replacement surgeries. The positions of the markers were followed by radiographs taken one day, six weeks, six months and one year following the operation as a means to monitor postoperative implant shifting. Other techniques for measuring or evaluating the stability of bone-connecting implants are known to those skilled in the art and may be applied to the present invention.
The displacement or migration of the implanted artificial hip is measured over a 6-month period using radiosterometric analysis (RSA) as described in Hilding et al., supra.
The displacement or migration of the implanted artificial hip is measured over a 9-month period using radiosterometric analysis (RSA) as described in Hilding et al., supra.
The displacement or migration of the implanted tibia is measured over a 4-month period using radiosterometric analysis (RSA) as described in Hilding et al., supra.
The displacement or migration of the implanted artificial knee is measured over a 12-month period using radiosterometric analysis (RSA) as described in Hilding et al., supra.

| Compound | prosthetic migration [1] | new bone formation [2] | fractures [3] | spinal bone mineral content [3] | fixation of a stainless steel screw [4] | likelihood of reoperation ([5]; Example 1: person, osteoporosis, artificial hip, regimen of Table 1) | likelihood of reoperation ([5]; Example 2: person, osteoarthritis, artificial hip, regimen of Table 2) | likelihood of reoperation ([5]; Example 3: person, tibia replacement, regimen of Table 3) | likelihood of reoperation ([5]; Example 4: person, knee replacement, regimen of Table 4) | likelihood of reoperation ([5]; Example 5: person, artificial hip, regimen of Table 5) |
| --- | --- | --- | --- | --- | --- | --- | --- | --- | --- | --- |
| O=P(O)(O)C(Cl)(Cl)P(=O)(O)O [Clodronate] | appeared to reduce prosthetic migration | – | – | – | – | – | – | – | – | – |
| PTH(1-34): The N-terminal 34 amino acids of human PTH (parathyroid hormone); PTH utilized in Examples 1-5 (SVSEIQLMHNLGKHLNSMERVEWLRKKLQDVHNF; Parathyroid hormone; UniProt P01270 32-65, looked up, fragment) | – | enhances new bone formation | reduce fractures | increase spinal bone mineral content | enhances fixation of a stainless steel screw | reduce the likelihood of reoperation | reduce the likelihood of reoperation | reduce the likelihood of reoperation | reduce the likelihood of a reoperation | reduce the likelihood of reoperation |
